Tests used:
[1] = system: Leishmania donovani; assay: Antileishmanial activity against Leishmania donovani MHOM/SD/62/1S-CL2D LdBOB axenic amastigotes harboring eGFP after 72 hrs by resazurin dye based fluorescence assay; format: functional, organism-based
[2] = system: Leishmania donovani; assay: Antileishmanial activity against Leishmania donovani MHOM/SD/62/1S-CL2D LdBOB amastigotes harboring eGFP infected in human THP1 cells assessed as reduction in number of amastigotes per cell after 96 hrs by DAPI staining based microscopic analysis; format: functional, organism-based; conditions: THP-1, 96 h
[3] = system: Trypanosoma cruzi; assay: Antitrypanosomal activity against Trypanosoma cruzi Tulahuen amastigote forms infected in rat H9c2 cells assessed as reduction in amastigote number per cell after 72 hrs by DRAQ5 DNA dye based confocal microscopic analysis; format: functional, organism-based; conditions: H9c2, 72 h
[4] = system: Leishmania donovani; assay: Antileishmanial activity against Leishmania donovani MHOM/SD/62/1S-CL2D LdBOB amastigotes harboring eGFP infected in human THP1 cells assessed as reduction in infected cells after 96 hrs by DAPI staining based microscopic analysis; format: functional, organism-based; conditions: THP-1, 96 h
[5] = system: THP-1; assay: Cytotoxicity against human THP1 cells infected with Leishmania donovani MHOM/SD/62/1S-CL2D LdBOB amastigotes harboring eGFP assessed as reduction in cell number after 96 hrs by DAPI staining based microscopic analysis; conditions: THP-1, 96 h
[6] = Cytotoxicity against human HepG2 cells after 48 hrs by CellTiter-Glo cell viability assay; format: cell-based
[7] = system: Trypanosoma brucei; assay: Antitrypanosomal activity against Trypanosoma brucei Lister 427 bloodstream forms after 48 hrs by resazurin dye based fluorescence assay; format: functional, organism-based; conditions: Lister 427, 48 h
[8] = system: H9c2; assay: Cytotoxicity against rat H9c2 cells infected with Trypanosoma cruzi Tulahuen amastigote forms assessed as reduction in cell number after 72 hrs by DRAQ5 DNA dye based confocal microscopic analysis; conditions: H9c2, 72 h
[9] = system: Trypanosoma cruzi; assay: Antitrypanosomal activity against Trypanosoma cruzi Tulahuen trypomastigote forms infected in monkey LLC-MK2 cells after 24 hrs by CellTiter-Glo luminescent cell viability assay; format: functional, organism-based; conditions: LLC-MK2, 24 h
[10] = system: Trypanosoma cruzi; assay: Antitrypanosomal activity against Trypanosoma cruzi Tulahuen amastigote forms infected in rat H9c2 cells assessed as reduction in infected cells after 72 hrs by DRAQ5 DNA dye based confocal microscopic analysis; format: functional, organism-based; conditions: H9c2, 72 h

| SMILES | IC50 [1] [µM] | IC50 [2] [µM] | IC50 [3] [µM] | IC50 [4] [µM] | IC50 [5] [µM] | CC50 at 48 h [6] [µM] | IC50 [7] [µM] | IC50 [8] [µM] | IC50 [9] [µM] | IC50 [10] [µM] |
| --- | --- | --- | --- | --- | --- | --- | --- | --- | --- | --- |
| CCCCNc1nc2ccc(OC)cc2nc1S(C)(=O)=O | 12.6 | 25.1 | 19.9 | 31.6 | 12.6 | 19.9 | 25.1 | 15.8 | 8.86 | 19.9 |
| COc1ccc2nc(NCCO)c(S(C)(=O)=O)nc2c1 | 25.1 | 25.1 | 31.6 | > 50 | 31.6 | 39.8 | 39.8 | 31.6 | 23.5 | 39.8 |
| CCCCNc1nc2ccccc2nc1S(C)(=O)=O | 10 | 19.9 | 15.8 | 25.1 | 12.6 | 12.6 | 25.1 | 10 | 8.67 | 15.8 |
| COc1ccc2nc(NC3CCCCC3)c(S(C)(=O)=O)nc2c1 | 10 | 6.31 | 12.6 | 7.94 | 10 | 12.6 | 15.8 | 6.31 | 3.64 | 15.8 |
| CCCCNc1nc2cc(OC)ccc2nc1S(C)(=O)=O | > 50 | > 50 | 25.1 | > 50 | > 50 | > 100 | 25.1 | 31.6 | 41.8 | 39.8 |
| COc1ccc2nc(S(C)(=O)=O)c(NCCO)nc2c1 | > 50 | > 50 | > 50 | > 50 | > 50 | > 100 | 39.8 | > 50 | 0.77 | > 50 |
| COc1ccc2nc(S(C)(=O)=O)c(NC3CCCCC3)nc2c1 | > 50 | > 50 | 15.8 | > 50 | 31.6 | 79.4 | 25.1 | 19.9 | 42.5 | 19.9 |
| COc1ccc2nc(S(C)(=O)=O)c(NCC(C)C)nc2c1 | > 50 | > 50 | 31.6 | > 50 | > 50 | 79.4 | 31.6 | 31.6 | 44 | 31.6 |
| COc1ccc2nc(S(C)(=O)=O)c(NCCC(C)C)nc2c1 | > 50 | > 50 | 15.8 | > 50 | 39.8 | 50.1 | 25.1 | 31.6 | > 50 | 19.9 |
| CCCCNc1nc2cc(Br)ccc2nc1S(C)(=O)=O | 5.01 | 6.31 | 5.01 | 10 | 7.94 | 7.94 | 6.31 | 5.01 | 0.98 | 7.94 |
| COc1ccc2nc(NCC(C)C)c(S(C)(=O)=O)nc2c1 | 12.6 | 12.6 | 15.8 | 19.9 | 7.94 | 12.6 | 25.1 | 10 | 5.44 | 19.9 |
| CCCCNc1nc2cc(Cl)ccc2nc1S(C)(=O)=O | 3.16 | 7.94 | 7.94 | 7.94 | 5.01 | 6.31 | 6.31 | 5.01 | 0.96 | 10 |
| CS(=O)(=O)c1nc2ccc(Cl)cc2nc1NC1CCCCC1 | 3.98 | 12.6 | 5.01 | 10 | 6.31 | 5.01 | 2.51 | 3.98 | 0.4 | 7.94 |
